Assay results published in patent US20250082674A1, “METHODS OF TREATING COPPER METABOLISM-ASSOCIATED DISEASES OR DISORDERS” (priority 2021, published 2025).
Read-outs that look alike come from different tables or passages of the source.

System: patients with Wilson disease (WD)
Details: for Transformed CGI-I Mean (SD): scores −3 (Very much improved) to 3 (Very much worse)
Excerpt: Dose modification, if required, was made as described herein.

## Bis-choline tetrathiomolybdate [BC-TTM]
Baseline
  CGI-S (1 to 7, 1 is normal) Mean: 2.7
  UWDRS Part II (0-40) Mean: 3.4
  UWDRS Part III (0-175) Mean: 13.99
  UWDRS Part III functional subscale (0-10) Mean: 1.390
  UWDRS Part III-arising from chair (0-4) Mean: 0.3
  UWDRS Part III-gait (0-4) Mean: 1.40
  UWDRS Part III-handwriting (0-4) Mean: 0.6
  UWDRS Part III-speech (0-4) Mean: 0.8
Study 301 extension period, interim
  key secondary endpoints (UWDRS, CGI) versus baseline: statistically significant improvements from baseline
Week 24
  CGI-S (1 to 7, 1 is normal) LSM (SE) change from baseline: −0.3 (0.07)
  CGI-S (1 to 7, 1 is normal) Mean (SD) change from baseline: −0.2 (0.79)
  UWDRS Part II (0-40) LSM (SE) change from baseline: −0.4 (0.20)
  UWDRS Part II (0-40) Mean (SD) change from baseline: −0.3 (1.99)
  UWDRS Part III (0-175) LSM (SE) change from baseline: −1.32 (0.619)
  UWDRS Part III (0-175) Mean (SD) change from baseline: −0.74 (5.937)
  UWDRS Part III functional subscale (0-10) LSM (SE) change from baseline: −0.158 (0.0547)
  UWDRS Part III functional subscale (0-10) Mean (SD) change from baseline: −0.139 (0.4540)
  UWDRS Part III-arising from chair (0-4) LSM (SE) change from baseline: −0.1 (0.03)
  UWDRS Part III-arising from chair (0-4) Mean (SD) change from baseline: 0.0 (0.38)
  UWDRS Part III-gait (0-4) LSM (SE) change from baseline: −0.21 (0.100)
  UWDRS Part III-gait (0-4) Mean (SD) change from baseline: −0.17 (1.113)
  UWDRS Part III-handwriting (0-4) LSM (SE) change from baseline: 0.0 (0.04)
  UWDRS Part III-handwriting (0-4) Mean (SD) change from baseline: −0.1 (0.38)
  UWDRS Part III-speech (0-4) LSM (SE) change from baseline: −0.1 (0.04)
  UWDRS Part III-speech (0-4) Mean (SD) change from baseline: −0.1 (0.38)
  Transformed CGI-I Mean (SD): −0.5 (0.82)
Week 48
  CGI-S (1 to 7, 1 is normal) LSM (SE) change from baseline: −0.4 (0.07)
  CGI-S (1 to 7, 1 is normal) Mean (SD) change from baseline: −0.5 (0.94)
  UWDRS Part II (0-40) LSM (SE) change from baseline: −0.7 (0.21)
  UWDRS Part II (0-40) Mean (SD) change from baseline: −0.7 (2.70)
  UWDRS Part III (0-175) LSM (SE) change from baseline: −2.47 (0.638)
  UWDRS Part III (0-175) Mean (SD) change from baseline: −2.32 (7.735)
  UWDRS Part III functional subscale (0-10) LSM (SE) change from baseline: −0.230 (0.0569)
  UWDRS Part III functional subscale (0-10) Mean (SD) change from baseline: −0.235 (0.6976)
  UWDRS Part III-arising from chair (0-4) LSM (SE) change from baseline: 0.0 (0.04)
  UWDRS Part III-arising from chair (0-4) Mean (SD) change from baseline: 0.0 (0.40)
  UWDRS Part III-gait (0-4) LSM (SE) change from baseline: −0.26 (0.104)
  UWDRS Part III-gait (0-4) Mean (SD) change from baseline: −0.18 (1.262)
  UWDRS Part III-handwriting (0-4) LSM (SE) change from baseline: −0.1 (0.04)
  UWDRS Part III-handwriting (0-4) Mean (SD) change from baseline: −0.2 (0.59)
  UWDRS Part III-speech (0-4) LSM (SE) change from baseline: −0.1 (0.04)
  UWDRS Part III-speech (0-4) Mean (SD) change from baseline: −0.1 (0.53)
  Transformed CGI-I Mean (SD): −0.7 (0.91)
Week 72
  CGI-S (1 to 7, 1 is normal) LSM (SE) change from baseline: −0.5 (0.07)
  CGI-S (1 to 7, 1 is normal) Mean (SD) change from baseline: −0.6 (1.10)
  UWDRS Part II (0-40) LSM (SE) change from baseline: −1.0 (0.22)
  UWDRS Part II (0-40) Mean (SD) change from baseline: −1.2 (2.92)
  UWDRS Part III (0-175) LSM (SE) change from baseline: −3.47 (0.672)
  UWDRS Part III (0-175) Mean (SD) change from baseline: −3.27 (9.840)
  UWDRS Part III functional subscale (0-10) LSM (SE) change from baseline: −0.253 (0.0604)
  UWDRS Part III functional subscale (0-10) Mean (SD) change from baseline: −0.290 (0.8908)
  UWDRS Part III-arising from chair (0-4) LSM (SE) change from baseline: −0.1 (0.04)
  UWDRS Part III-arising from chair (0-4) Mean (SD) change from baseline: −0.1 (0.57)
  UWDRS Part III-gait (0-4) LSM (SE) change from baseline: −0.15 (0.110)
  UWDRS Part III-gait (0-4) Mean (SD) change from baseline: −0.12 (1.321)
  UWDRS Part III-handwriting (0-4) LSM (SE) change from baseline: −0.2 (0.05)
  UWDRS Part III-handwriting (0-4) Mean (SD) change from baseline: −0.2 (0.59)
  UWDRS Part III-speech (0-4) LSM (SE) change from baseline: −0.1 (0.04)
  UWDRS Part III-speech (0-4) Mean (SD) change from baseline: −0.1 (0.51)
  Transformed CGI-I Mean (SD): −0.5 (0.86)
Week 96
  CGI-S (1 to 7, 1 is normal) LSM (SE) change from baseline: −0.5 (0.09)
  CGI-S (1 to 7, 1 is normal) Mean (SD) change from baseline: −0.6 (0.97)
  UWDRS Part II (0-40) LSM (SE) change from baseline: −1.1 (0.30)
  UWDRS Part II (0-40) Mean (SD) change from baseline: −1.1 (3.61)
  UWDRS Part III (0-175) LSM (SE) change from baseline: −4.77 (0.865)
  UWDRS Part III (0-175) Mean (SD) change from baseline: −4.09 (10.827)
  UWDRS Part III functional subscale (0-10) LSM (SE) change from baseline: −0.386 (0.0801)
  UWDRS Part III functional subscale (0-10) Mean (SD) change from baseline: −0.503 (0.9648)
  UWDRS Part III-arising from chair (0-4) LSM (SE) change from baseline: −0.1 (0.05)
  UWDRS Part III-arising from chair (0-4) Mean (SD) change from baseline: −0.2 (0.76)
  UWDRS Part III-gait (0-4) LSM (SE) change from baseline: −0.12 (0.143)
  UWDRS Part III-gait (0-4) Mean (SD) change from baseline: −0.11 (1.390)
  UWDRS Part III-handwriting (0-4) LSM (SE) change from baseline: −0.3 (0.06)
  UWDRS Part III-handwriting (0-4) Mean (SD) change from baseline: −0.4 (0.66)
  UWDRS Part III-speech (0-4) LSM (SE) change from baseline: −0.2 (0.05)
  UWDRS Part III-speech (0-4) Mean (SD) change from baseline: −0.2 (0.57)
  Transformed CGI-I Mean (SD): −0.5 (0.98)
Week 120
  CGI-S (1 to 7, 1 is normal) LSM (SE) change from baseline: −0.7 (0.11)
  CGI-S (1 to 7, 1 is normal) Mean (SD) change from baseline: −0.6 (1.06)
  UWDRS Part II (0-40) LSM (SE) change from baseline: −1.7 (0.35)
  UWDRS Part II (0-40) Mean (SD) change from baseline: −1.4 (3.48)
  UWDRS Part III (0-175) LSM (SE) change from baseline: −5.27 (1.016)
  UWDRS Part III (0-175) Mean (SD) change from baseline: −4.08 (11.618)
  UWDRS Part III functional subscale (0-10) LSM (SE) change from baseline: −0.392 (0.0952)
  UWDRS Part III functional subscale (0-10) Mean (SD) change from baseline: −0.410 (1.1867)
  UWDRS Part III-arising from chair (0-4) LSM (SE) change from baseline: −0.1 (0.06)
  UWDRS Part III-arising from chair (0-4) Mean (SD) change from baseline: −0.2 (0.83)
  UWDRS Part III-gait (0-4) LSM (SE) change from baseline: 0.04 (0.172)
  UWDRS Part III-gait (0-4) Mean (SD) change from baseline: 0.26 (1.683)
  UWDRS Part III-handwriting (0-4) LSM (SE) change from baseline: −0.3 (0.07)
  UWDRS Part III-handwriting (0-4) Mean (SD) change from baseline: −0.5 (0.68)
  UWDRS Part III-speech (0-4) LSM (SE) change from baseline: −0.2 (0.06)
  UWDRS Part III-speech (0-4) Mean (SD) change from baseline: −0.1 (0.61)
  Transformed CGI-I Mean (SD): −0.7 (0.92)
Week 144
  CGI-S (1 to 7, 1 is normal) LSM (SE) change from baseline: −0.6 (0.12)
  CGI-S (1 to 7, 1 is normal) Mean (SD) change from baseline: −0.6 (0.78)
  UWDRS Part II (0-40) LSM (SE) change from baseline: −2.0 (0.39)
  UWDRS Part II (0-40) Mean (SD) change from baseline: −2.0 (4.68)
  UWDRS Part III (0-175) LSM (SE) change from baseline: −6.38 (1.112)
  UWDRS Part III (0-175) Mean (SD) change from baseline: −5.99 (12.215)
  UWDRS Part III functional subscale (0-10) LSM (SE) change from baseline: −0.489 (0.1046)
  UWDRS Part III functional subscale (0-10) Mean (SD) change from baseline: −0.573 (1.2617)
  UWDRS Part III-arising from chair (0-4) LSM (SE) change from baseline: −0.2 (0.07)
  UWDRS Part III-arising from chair (0-4) Mean (SD) change from baseline: −0.3 (1.03)
  UWDRS Part III-gait (0-4) LSM (SE) change from baseline: −0.25 (0.186)
  UWDRS Part III-gait (0-4) Mean (SD) change from baseline: 0.00 (1.950)
  UWDRS Part III-handwriting (0-4) LSM (SE) change from baseline: −0.3 (0.08)
  UWDRS Part III-handwriting (0-4) Mean (SD) change from baseline: −0.5 (0.59)
  UWDRS Part III-speech (0-4) LSM (SE) change from baseline: −0.3 (0.07)
  UWDRS Part III-speech (0-4) Mean (SD) change from baseline: −0.2 (0.59)
  Transformed CGI-I Mean (SD): −0.7 (0.76)
